# Test results published in patent US20110230504A1, “ALLEVIATING DISORDERS WITH COMBINING AGENTS THAT INCREASE EPOXYGENATED FATTY ACIDS AND AGENTS THAT INCREASE cAMP” (The Regents Of The University Of California Office Of …, priority 2008, published 2011).
# Entries after “also recorded” stand apart in the source; their conditions may differ.
# Key:
# rats [1] = assay: Thermal withdrawal latency, intraplantar LPS inflammatory pain model and non-inflamed controls; type: in vivo, rat; settings: for effect on AEPU mediated antihyperalgesia: LPS treated rats, AEPU 50 mg/kg topical; for thermal withdrawal latency in the absence of inflammation: control rats, i.pl. saline; for LPS elicited thermal hyperalgesia (thermal withdrawal latency): rats, i.pl. LPS 10 μg
# [2] = Brain, blood and plasma inhibitor levels, LC-ESI-MS/MS; settings: 10 mg/kg TPAU, 40 mg/kg AUDA; unpublished results
# rats [3] = assay: Mechanical hind paw withdrawal threshold (Randall-Selitto), non-inflammatory model; type: in vivo, rat
# Protocol: Behavioral nociceptive testing was conducted by assessing thermal hindpaw withdrawal latencies (TWL) using a commercial Hargreaves apparatus (IITC, Woodland Hills, Calif.), or by determining mechanical hind paw withdrawal thresholds (MWT) using a digital paw pressure Randall-Selitto instrument (IITC, Woodland Hills, Calif.). On the day of the experiment, rats were transferred to a quiet room, acclimated for 1 hour and their baseline responses were measured. In pilot experiments, the intensity of the thermal stimulus was set to produce a baseline TWL of 7-8 sec. Baseline mechanical hind paw withdrawal thresholds varied between 60-70 grams of force. Immediately following baseline determination all compounds were administered subcutaneously in the following vehicles; Inhibitors of sEH were formulated in trans free oleate and administered in a total volume of 300 µL Rolipram, picrotoxin, flucanozole, miconazole and finasteride were all dissolved in a sterile saline solution containing 25% DMSO and administered in a volume of 50 μl. Caffeine was dissolved in saline and administered in a total volume of 300 μl. All agents were administered subcutaneously into the back. In groups treated with the sEHi, cytochrome P450 inhibitors, finasteride or picrotoxin animals were pretreated one hour before other compounds. In groups treated with the PDEi, immediately following PDEi administration animals were placed in acrylic chambers on a glass platform maintained at a temperature of 30±1° C. for TWL measurement. Three to five TWL measurements were taken at 1-2 min interstimulus intervals following treatments and these were averaged for each animal at each time point. […] The instrument was set to the maximum holding (MH) mode and the readout that elicited a hind paw withdrawal was designated as the threshold. […] Open field activity was quantified using a Plexiglas chamber (40×40×30 cm, length×width×height) imprinted with a 10×10 cm grid. […] The number of crossings were recorded when both hind paws crossed into a neighboring cell. […]
# rats [4] = assay: Thermal hindpaw withdrawal latency (Hargreaves), non-inflammatory model; type: in vivo, rat
# Protocol: Behavioral nociceptive testing was conducted by assessing thermal hindpaw withdrawal latencies (TWL) using a commercial Hargreaves apparatus (IITC, Woodland Hills, Calif.), or by determining mechanical hind paw withdrawal thresholds (MWT) using a digital paw pressure Randall-Selitto instrument (IITC, Woodland Hills, Calif.). On the day of the experiment, rats were transferred to a quiet room, acclimated for 1 hour and their baseline responses were measured. In pilot experiments, the intensity of the thermal stimulus was set to produce a baseline TWL of 7-8 sec. Baseline mechanical hind paw withdrawal thresholds varied between 60-70 grams of force. Immediately following baseline determination all compounds were administered subcutaneously in the following vehicles; Inhibitors of sEH were formulated in trans free oleate and administered in a total volume of 300 µL Rolipram, picrotoxin, flucanozole, miconazole and finasteride were all dissolved in a sterile saline solution containing 25% DMSO and administered in a volume of 50 μl. Caffeine was dissolved in saline and administered in a total volume of 300 μl. All agents were administered subcutaneously into the back. In groups treated with the sEHi, cytochrome P450 inhibitors, finasteride or picrotoxin animals were pretreated one hour before other compounds. In groups treated with the PDEi, immediately following PDEi administration animals were placed in acrylic chambers on a glass platform maintained at a temperature of 30±1° C. for TWL measurement. Three to five TWL measurements were taken at 1-2 min interstimulus intervals following treatments and these were averaged for each animal at each time point. For MWT measurement, 45 minutes following treatment, the probe of the Randall-Selitto paw pressure meter was applied to the dorsal surface of the hind paw. The instrument was set to the maximum holding (MH) mode and the readout that elicited a hind paw withdrawal was designated as the threshold. Three MWT measurements were taken at 1-2 min interstimulus intervals and these were averaged for each animal. Data are presented as percent change from each animal's baseline response. Open field activity was quantified using a Plexiglas chamber (40×40×30 cm, length×width×height) imprinted with a 10×10 cm grid. Animals were placed in the middle of the chamber and observed for two minutes. The number of crossings were recorded when both hind paws crossed into a neighboring cell.
# A non-inflammatory model was used to test the hypothesis that elevated intracellular cAMP and EETs will act synergistically in producing antinociception. Intracellular cAMP levels were increased by administering increasing doses of two CNS permeable PDEi; rolipram, a PDE-4 selective inhibitor and caffeine, a non selective PDEi. […]
# rats [5] = assay: Streptozocin induced diabetic neuropathy, Von Frey mechanical allodynia; type: in vivo, rat; settings: Von Frey's test
# Protocol: The study was approved by UC Davis Animal Care and Use Committee. Male Sprague-Dawley rats weighing 250-350 g were obtained from Charles River Inc. Two models of inflammatory pain and one model of diabetic neuropathic pain were used to test the effects of sEHI. The main inflammatory pain model used involved intraplantar LPS (10 μg/animal) administration as described previously (Inceoglu B et al., Life Sci 79:2311-2319 (2006)). Briefly, following baseline thermal withdrawal latency and mechanical withdrawal threshold determination LPS (in saline) was administered into one hind paw and nociceptive thresholds were monitored over time. The other inflammatory pain model involved intraplantar carrageenan (1% in saline, 50 μl) administration and was only used when sEHI was administered into the spinal cord. Intrathecal catheters were implanted according to Yaksh and Rudy (Yaksh T L and Rudy T A, Physiol Behav 17(6):1031-1036 (1976)). Following baseline nociceptive response measurements carrageenan was administered into one hind paw and responses were monitored over time and after intraspinal sEHI administration. […] In experiments in which EETs, sEHI and cAMP analogue was administered intraspinally animals were maintained under deep anesthesia and therefore nociceptive thresholds were not determined.
# [6] = test system: circulating testosterone and progesterone; assay: Circulating steroid hormone levels by RIA; type: in vivo, rat; settings: rats
# [7] = test system: plasma oxylipins (EETs, DHETs, PGE2); assay: Plasma oxylipin analysis in LPS treated rats; type: in vivo, rat
# Source text: Plasma was collected by cardiac puncture under deep anesthesia. Rats were anesthetized by isoflurane overdose and decapitated. Whole brains were immediately excised and flash frozen. […] Dorsal roots were excluded.
# StARD1 mRNA [8] = assay: StARD1 mRNA 30 min after intraspinal 8-Br cAMP, EETs, AEPU in non-inflamed rats; type: in vivo, rat; settings: 8-Br cAMP 100 μg, EETs 5 μg, AEPU 1 μg
# Protocol: To investigate the cooperation between cAMP and EETs in the spinal cord, a membrane permeable cAMP analogue, 8-Br cAMP (100 μg), was administered into the spinal cord by lumbar puncture (between L4-L5) and rapid (30 min.) expression of StARD1 mRNA in the spinal cord and the brain was quantified by qRT-PCR. In these experiments animals were maintained under deep anesthesia.
# rats [9] = assay: Open field / motor activity; type: in vivo, rat; settings: rolipram 0.1 and TPAU 10 mg/kg
# C57BL/6 mice = assay: Pentobarbital induced loss of righting reflex; type: in vivo, mouse; settings: pentobarbital 40 mg/kg i.p., TPAU 3 mg/kg, rolipram 1 mg/kg s.c.
# Source text: Loss of righting was quantified as previously described, with a slightly lower dose of pentobarbital (Pinna, et al. (2004) Proc Natl Acad Sci USA, 101(16), 6222-6225).
# In rats, sEHi-PDEi combination led to significant increases in nociceptive thresholds. We asked if co-administration of sEHi-PDEi combination would also enhance GABA-related activity in mice. Loss of righting reflex in pentobarbital administered mice following sEHi and PDEi administration was quantified.
# StARD1 mRNA [10] = assay: StARD1 expression after rolipram and TPAU, qRT-PCR; type: in vivo, rat; settings: rats
# Source text: Briefly, RNA from whole spinal cord, brain and adrenal gland samples were extracted using a purelink Micro to Midi total RNA purification kit (Invitrogen, CA). The RNA samples were quantified by spectrophotometry and converted to cDNA using a high capacity cDNA reverse transcription kit from Applied Biosystems (CA, USA). Taq-man probe for StARD1 (Rn00580695_ml) was used according to manufacturer's instructions to quantify relative gene expression (Applied Biosystems CA, USA). Experiments were performed in triplicate with glyceraldehyde 3-phosphate dehydrogenase gene serving as the endogenous control. Mean fold expression values from corresponding vehicle treated animal tissues were used as calibrators.
# These findings encouraged us to investigate the expression of StARD1 message as a marker of steroidogenic activity. […] Adrenal StARD1 from the same animals was also monitored as a marker of peripheral steroidogenesis.
# allopregnanolone = assay: Radioimmunoassay of allopregnanolone in spinal cord and brain; type: in vivo, rat; settings: rats, increasing rolipram doses, TPAU 10 mg/kg s.c.
# Protocol: Radioimmunoassays were conducted as previously described (Janis G, C. et al., Alcoholism: Clinical and Experimental Research 22:2055-2061 (1998)). Briefly, spinal cord and brain samples were weighed and suspended in 2.5 ml of 0.3N NaOH, homogenized with a sonic dismembrator, and extracted three times with 3 ml aliquots of 10% ethyl acetate in heptane (vol/vol). Extraction recovery was monitored by the addition of 2000 cpm of [^3H]allopregnanolone. The extracts were purified using solid phase silica columns (Burdick and Jackson, Muskegon, Mich.) and subsequently dried. Samples were reconstituted and assayed in duplicate by the addition of [^3H]allopregnanolone and anti-allopregnanolone antibody (1:2000; Custom synthesis, Reproductive Endocrine Unit, Massachusetts General Hospital). Total binding was determined in the absence of unlabeled allopregnanolone and nonspecific binding was determined in the absence of antibody. The antibody binding reaction is allowed to equilibrate for 2 hours and cold dextran-coated charcoal was used to separate bound from unbound steroid. Bound radioactivity was determined by liquid scintillation spectroscopy. Steroid levels in the samples were extrapolated from a concurrently run standard curve and corrected for their respective extraction efficiencies. The sensitivity of the assay was 0.63 ng/ml. The intraassay coefficient of variation was <5%.
# [11] = test system: C57BL/6 mice; sEH null mice; assay: Picrotoxin induced seizures; type: in vivo, mouse
# [12] = one hour, increasing rolipram doses, TPAU 10 mg/kg
compound,measurement,setting,value
CC(=O)S[C@@H]1CC2=CC(=O)CC[C@]2(C)[C@H]2CC[C@@]3(C)[C@@H](CC[C@@]34CCC(=O)O4)[C@H]12 [spironolactone],effect on AEPU mediated antihyperalgesia,rats [1],did not block
"O=C(O)CCCCCCCCCCCNC(=O)NC12CC3CC(CC(C3)C1)C2 [AUDA, 12-(3-Adamantan-1-yl-ureido)dodecanoic acid]",plasma inhibitor levels relative to rat sEH IC50,[2],200 fold
same,effect on caffeine's increase of mechanical withdrawal threshold,"rats [3]; rats, AUDA 40 mg/kg",enhanced
same,"thermal withdrawal latency, sEHi alone","rats [4]; rats, s.c., over 4 hours, vs baseline",no significant differences
same,mechanical allodynia elicited by streptozocin induced diabetic neuropathy,rats [5],reduced
CCC1(c2ccc(N)cc2)CCC(=O)NC1=O (centres unmarked) [aminoglutethimide],circulating / plasma progesterone level,[6],significantly reduced
same,effect on AEPU mediated antihyperalgesia,rats [1],blocked
same,thermal withdrawal latency in the absence of inflammation,rats [1],failed to alter
same,LPS elicited thermal hyperalgesia (thermal withdrawal latency),rats [1],failed to alter
same,plasma EET/DHET ratio,[7]; LPS and AEPU-treated rats,did not change
same,antagonism of sEHI reduction of PGE2,[7]; LPS+AEPU+AGL treated rats,did not antagonize
CC1(C)NC(=O)N(c2ccc([N+](=O)[O-])c(C(F)(F)F)c2)C1=O [nilutamide],effect on AEPU mediated antihyperalgesia,rats [1],did not block
CC/C(=C(\c1ccccc1)c1ccc(OCCN(C)C)cc1)c1ccccc1 [tamoxifen],effect on AEPU mediated antihyperalgesia,rats [1],did not block
Nc1ncnc2c1nc(Br)n2[C@@H]1O[C@@H]2COP(=O)(O)O[C@H]2[C@H]1O [8-Br cAMP],brain StARD1 expression,StARD1 mRNA [8],Neither brain nor spinal StARD1 expression changed
same,spinal StARD1 expression,StARD1 mRNA [8],without effect
Cn1c(=O)c2c(ncn2C)n(C)c1=O [caffeine],open field activity / motor function,rats [9],did not cause depression of motor activity
OC(Cn1cncn1)(Cn1cncn1)c1ccc(F)cc1F [Flucanozole],effect on the dose-effect curve of rolipram (antinociception),"rats [4]; rats, s.c.",antagonized
COc1ccc(C2CNC(=O)C2)cc1OC1CCCC1 (centres unmarked) [Rolipram],duration of pentobarbital induced loss of righting response,C57BL/6 mice,no effect; also recorded: did not change
same,ED50,"rats [3]; Rattus norvegicus, sc, rats, rolipram dose, AUDA 40 mg/kg",0.3 mg/kg
same,decrease in adrenal gland StARD1 expression,StARD1 mRNA [10],30%
same,brain StARD1 expression,StARD1 mRNA [10]; [12],no change
same,spinal cord StARD1 expression,StARD1 mRNA [10]; [12],biphasic increase
same,brain allopregnanolone levels,allopregnanolone,significantly increased allopregnanolone levels at one dose point only
same,spinal cord allopregnanolone levels,allopregnanolone,did not change
same,time to onset of picrotoxin induced seizures,"[11]; C57BL/6 mice, picrotoxin 10 mg/kg s.c., TPAU 3 mg/kg, rolipram 1 mg/kg s.c.",no effect
same,onset of picrotoxin induced seizures in sEH null mice,"[11]; sEH null mice, increasing doses",delayed in a dose dependent manner
same,ED50,"rats [4]; Rattus norvegicus, sc",0.53 mg/kg
same,"efficacy, increase over baseline in thermal withdrawal latency","rats [4]; rats, s.c.",202%
same,open field activity / motor function,rats [9],depression of activity
CC(C)(C)NC(=O)[C@H]1CC[C@H]2[C@@H]3CC[C@H]4NC(=O)C=C[C@]4(C)[C@H]3CC[C@]12C [finasteride],effect on AEPU mediated antihyperalgesia,rats [1],blocked
same,thermal withdrawal latency in the absence of inflammation,rats [1],failed to alter
same,LPS elicited thermal hyperalgesia (thermal withdrawal latency),rats [1],failed to alter
same,effect on the dose-effect curve of rolipram (antinociception),"rats [4]; rats, s.c.",antagonized
Clc1ccc(COC(Cn2ccnc2)c2ccc(Cl)cc2Cl)c(Cl)c1 (centres unmarked) [miconazole],effect on the dose-effect curve of rolipram (antinociception),"rats [4]; rats, s.c.",failed to change
CC#C[C@]1(O)CC[C@H]2[C@@H]3CCC4=CC(=O)CCC4=C3[C@@H](c3ccc(N(C)C)cc3)C[C@@]21C [mifepristone],effect on AEPU mediated antihyperalgesia,rats [1],did not block
picrotoxin,effect on rolipram+AUDA increase in mechanical withdrawal threshold,rats [3]; picrotoxin 0.25 mg/kg,antagonized
same,"effect on rolipram+AUDA antinociception, thermal withdrawal",rats [4]; picrotoxin 0.25 mg/kg,antagonized
same,"baseline nociceptive responses, given alone",rats [4]; picrotoxin 0.25 mg/kg s.c.,did not change baseline responses
